Earlier results as cited in patent publication US20050158845A1 (priority 2001, published 2005).

System: human hepatocyte and neuroblastoma cells
Conditions: cited from earlier work

Structure (SMILES) | effects on hepatocyte and neuroblastoma cell metabolism
CCOP(=O)(OCC)Oc1ccc([N+](=O)[O-])cc1 [paraoxon] | opposite effects
CCOP(=S)(OCC)Oc1ccc([N+](=O)[O-])cc1 [parathion] | opposite effects
